Experimental findings from PubChem BioAssay (NCI) are described below.

Assay in all cases: NCI tumour cell line growth inhibition, 48 h
In experiment [1] the test system is NCI-H226 lung.
Experiment [2] relates to UO-31 renal.
Experiment [3] concerns TK-10 renal.
For experiment [4], the system named is M14 melanoma.
Experiment [5] concerns SNB-19 CNS.
In experiment [6] the test system is SW-620 colon.
For experiment [7], the system named is MALME-3M melanoma.
Experiment [8] deals with HCC-2998 colon.
In experiment [9] the test system is OVCAR-8 ovarian.
Experiment [10] deals with DU-145 prostate.

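Where inhibition never reached the appropriate level, the endpoint shown equals the highest concentration tested. Otherwise, values were interpolated linearly from a five-concentration, 48-hour dose response in 96-well plates. Abbreviation: GI50, concentration required for 50% inhibition of growth. TGI is the concentration that stops growth completely.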

For the molecule `Cc1cc(Nc2cc(N3CCN(C)CC3)nc(C#Cc3ccccc3)n2)n[nH]1`, the GI50 in experiment [1] was 2.17 µM; in experiment [2], 1.07 µM; in experiment [3], 0.897 µM; in [4], 1.4 µM; in [5] it was 5.59 µM; in [6] it was 2.72 µM. Besides, the GI50 in experiment [7] was 2 µM; in experiment [8], 2.71 µM; in experiment [9], 6.5 µM; in experiment [10], 4.18 µM. Also, the TGI in experiment [1] is 14.3 µM; in experiment [2], 7.28 µM; in [3], 6.79 µM; in experiment [4], 14.7 µM; in [5] it was 19.5 µM; in experiment [6] it was 14.4 µM. Also, the TGI in experiment [7] was found to be 13.9 µM; in experiment [8], 13.1 µM; in experiment [9], 22.3 µM; in [10] it was 18.2 µM.

For the molecule `N=C(N)SCC(=O)O`, the TGI in experiment [1], in experiment [2], in experiment [3], in experiment [4], in experiment [5] and in [6] was more than 100 µM each time. Moreover, the TGI in [7], in experiment [8], in experiment [9] and in [10] was more than 100 µM throughout.

Regarding `NC1(C(=O)O)CSSC1`, the GI50 in [1] was 2.7 µM; in experiment [2], 3.68 µM; in experiment [3], 3.42 µM; in experiment [4], 3.21 µM; in [5] it was 3.59 µM; in experiment [6], 10.4 µM. Also, the GI50 in experiment [7] is 2.77 µM; in experiment [8] it was 16.1 µM; in experiment [9], 3.6 µM; in experiment [10] it was 7.63 µM. For the same molecule, the TGI in experiment [1] was 8.82 µM; in experiment [2], 34.4 µM; in experiment [3] it was 24.3 µM; in [4], 11.8 µM; in experiment [5], 84 µM; in [6] it was more than 100 µM. Moreover, the TGI in experiment [7] was 7.12 µM; in [8], 77.5 µM; in experiment [9], 24.4 µM; in experiment [10], more than 100 µM.

For the molecule `C=C[C@@]1(C)CC(=O)[C@]2(O)[C@@]3(C)[C@@H](O)CCC(C)(C)[C@@H]3[C@H](O)[C@@H](OC(C)=O)[C@@]2(C)O1`, the TGI in experiment [1], in experiment [2], in experiment [3], in experiment [4], in experiment [5] and in [6] was more than 100 µM in each case. Besides, the TGI in experiment [7], in experiment [8], in experiment [9] and in [10] was more than 100 µM throughout.

In the case of `O=C(Nc1cccc(Cl)c1)c1cc(Cl)ccc1O`, the GI50 was 1.05 µM in experiment [1]; 0.369 µM in experiment [2]; 4.36 µM in experiment [3]; 0.851 µM in experiment [4]; 0.481 µM in experiment [5]; 1.36 µM in experiment [6]. Further, the GI50 in experiment [7] is 0.4 µM; in experiment [8], 2.94 µM; in experiment [9], 1.51 µM; in experiment [10] it was 1.66 µM. Besides, the TGI in experiment [1] came to 4.12 µM; in experiment [2], 7.08 µM; in experiment [3], 12.6 µM; in experiment [4], 5.4 µM; in experiment [5] it was 36.6 µM; in experiment [6], 9.85 µM. For the same molecule, the TGI in experiment [7] is 2.66 µM; in [8], more than 29.6 µM; in experiment [9], 5.43 µM; in [10], more than 54.1 µM.

`CCCCCCCCCCCCNC(=O)[C@H]1CSC(c2ccsc2)N1` (stereo not given in full): the GI50 is 0.896 µM in experiment [1]; 0.826 µM in experiment [2]; 0.897 µM in experiment [3]; 0.855 µM in [4]; 0.952 µM in experiment [5]; 0.969 µM in [6]. Further, the GI50 was 1.14 µM in experiment [7], 0.955 µM in [8], 1.11 µM in [9] and 0.979 µM in [10]. Besides, the TGI stood at 1.74 µM in experiment [1]; 1.51 µM in experiment [2]; 1.63 µM in experiment [3]; 1.63 µM in experiment [4]; 1.83 µM in [5]; 1.85 µM in [6]. The TGI in experiment [7] is 2.12 µM; in [8] it was 2.15 µM; in [9], 2.26 µM; in experiment [10], 1.82 µM.

In the case of `CC(C)c1ccc2c(c1)c(SC(C)(C)C)c(CC(C)(C)C(=O)O)n2Cc1ccc(Cl)cc1`, the GI50 in experiment [1] is 12.6 µM; in experiment [2], 7.72 µM; in [3], 15.2 µM; in experiment [4], 16.3 µM; in experiment [5], 8.45 µM; in [6], 12.4 µM. The GI50 in experiment [7] was 17.6 µM; in experiment [8], 7.71 µM; in [9], 6.81 µM; in experiment [10], 6.76 µM. In addition, the TGI in experiment [1] was found to be 30.8 µM; in [2], 20.7 µM; in experiment [3] it was 30.6 µM; in [4] it was 36.5 µM; in experiment [5] it was 22.7 µM; in experiment [6], 29.1 µM. The TGI was determined as 34 µM in [7], 20.4 µM in [8], 19.6 µM in [9] and 19 µM in experiment [10].

As to `CC[C@H](C)[C@H](NC(=O)N[C@@H](C)c1ccccc1)C(=O)N(C)[C@H](C[C@@H](OC(C)=O)c1nc(C(=O)N[C@@H](Cc2ccccc2)C[C@H](C)C(=O)OC)cs1)C(C)C`, the GI50 in [1] is 44.1 µM; in experiment [2], 25.5 µM; in experiment [3], 52 µM; in experiment [4], 15.9 µM; in [5], 28.6 µM; in [6] it was 26.4 µM. In addition, the GI50 in [7] is more than 100 µM; in experiment [8], 28.8 µM; in experiment [9] it was 35.4 µM; in experiment [10], 32.8 µM. Besides, the TGI was more than 100 µM in experiment [1]; more than 100 µM in [2]; more than 100 µM in experiment [3]; 46.7 µM in experiment [4]; more than 100 µM in [5]; more than 100 µM in experiment [6]. The TGI in [7], in experiment [8], in [9] and in experiment [10] was more than 100 µM in each case.

`Cc1ccc(NCCNCC(O)CO)c2c(=O)c3ccccc3sc12` (stereo not given): the GI50 was 1.65 µM in [1]; 1.12 µM in experiment [2]; 1.51 µM in [3]; 1.55 µM in experiment [4]; 1.52 µM in experiment [5]; 1.04 µM in [6]. Also, the GI50 in experiment [7] was 1.37 µM; in experiment [8] it was 1.48 µM; in experiment [9] it was 1.92 µM; in [10], 1.28 µM. Further, the TGI in experiment [1] turned out to be 3.44 µM; in [2], 2.48 µM; in [3], 3.1 µM; in experiment [4] it was 3.13 µM; in experiment [5], 3.23 µM; in experiment [6] it was 2.57 µM. Further, the TGI in experiment [7] was 2.76 µM; in experiment [8], 3.05 µM; in [9] it was 4.77 µM; in experiment [10] it was 2.62 µM.

For the molecule `COc1ccc(-c2nn3ncccc3c2-c2ccnc(Nc3cccc(C(F)(F)F)c3)n2)cc1`, the GI50 is 9.16 µM in experiment [1]; 4.83 µM in [2]; 8.49 µM in experiment [3]; 9.01 µM in experiment [4]; 12.5 µM in experiment [5]; 10.8 µM in experiment [6]. Moreover, the GI50 in experiment [7] is 10.2 µM; in experiment [8], 5.33 µM; in experiment [9], 8.74 µM; in experiment [10], 12.1 µM. Moreover, the TGI in [1] is more than 25 µM; in experiment [2] it was more than 22.9 µM; in [3], more than 22.5 µM; in [4], more than 25 µM; in experiment [5], more than 25 µM; in experiment [6] it was more than 25 µM. In addition, the TGI in experiment [7] was more than 25 µM; in experiment [8], 18.6 µM; in [9], more than 25 µM; in [10], more than 25 µM.

`COc1ccc(CNC(=O)c2ccc(-c3cc(-c4nnc(C)o4)ccc3C)cc2)cc1`: the GI50 is more than 20.4 µM in experiment [1]; 6.03 µM in experiment [2]; more than 25 µM in [3]; more than 25 µM in experiment [4]; more than 22.8 µM in experiment [5]; more than 25 µM in [6]. Further, the GI50 in experiment [7] was 5.37 µM; in experiment [8], more than 25 µM; in [9], more than 25 µM; in experiment [10], more than 25 µM. Besides, the TGI in [1], in experiment [2], in experiment [3], in [4], in experiment [5] and in experiment [6] was more than 25 µM throughout. Further, the TGI in experiment [7], in experiment [8], in experiment [9] and in experiment [10] was more than 25 µM each time.

`Cc1cc([C@H](C)Nc2nccc(N3C(=O)OC[C@@H]3[C@H](C)F)n2)ncc1-c1ccnc(C(F)(F)F)c1`: the GI50 in experiment [1] was 30.5 µM; in experiment [2], 6.08 µM; in [3], 53 µM; in [4], 37.7 µM; in experiment [5], 39 µM; in experiment [6], 46.6 µM. The GI50 in experiment [7] is 24.2 µM; in [8] it was 72.6 µM; in [9], 33.5 µM; in experiment [10], 75.6 µM. The TGI in experiment [1], in [2], in [3], in [4], in experiment [5] and in experiment [6] was more than 100 µM in each case. For the same molecule, the TGI in experiment [7], in [8], in [9] and in experiment [10] was more than 100 µM in each case.

Turning to `CCOC(=O)C(=Cc1c(-c2ccccc2)[nH]c2ccccc12)C(=O)OCC`, the GI50 in [1] is 11.3 µM; in experiment [2] it was 3.92 µM; in experiment [3] it was 13.5 µM; in experiment [4], 4.16 µM; in experiment [5], 21.6 µM; in experiment [6], 5.57 µM. For the same molecule, the GI50 in [7] is 8.09 µM; in experiment [8], 10.1 µM; in experiment [9], 4.08 µM; in experiment [10], 9.69 µM. In addition, the TGI in experiment [1] was 34.7 µM; in experiment [2] it was 17.1 µM; in experiment [3], 56.9 µM; in experiment [4], 15.6 µM; in experiment [5], more than 64.3 µM; in [6], 22.1 µM. Moreover, the TGI came to 22.3 µM in experiment [7], 22.6 µM in [8], 17.9 µM in experiment [9] and 28.4 µM in experiment [10].

`COC12C=C/C(=C(/C(=O)OCc3csc(SC)n3)C(=O)CCCCCCCCC3(OC)C=C/C(=C(/C(=O)OCc4cnc(SC)s4)C(=O)CCCCCCCC1)O3)O2` (stereo not given): the GI50 is 3.48 µM in experiment [1]; 4.96 µM in experiment [2]; 15.8 µM in experiment [3]; 2.62 µM in experiment [4]; 8.6 µM in [5]; 3.66 µM in experiment [6]. The GI50 is 3.84 µM in experiment [7], 2.34 µM in experiment [8], 2.08 µM in experiment [9] and 5.39 µM in [10]. The TGI in experiment [1] was 17.1 µM; in experiment [2] it was more than 100 µM; in [3], 74.8 µM; in experiment [4] it was more than 100 µM; in [5] it was more than 100 µM; in experiment [6] it was more than 100 µM. The TGI in experiment [7] is 39.7 µM; in experiment [8] it was 5.11 µM; in experiment [9], 32.4 µM; in experiment [10] it was more than 100 µM.

For `COc1ccc(-c2nn(-c3cccc(Cl)c3)cc2/C=C2\C(=N)N(c3ccccc3)N=C2N)cc1`, the GI50 is 6.58 µM in experiment [1]; 0.587 µM in experiment [2]; 7.77 µM in [3]; 0.331 µM in experiment [4]; 8.58 µM in [5]; 0.399 µM in [6]. The GI50 is 4.9 µM in experiment [7], 0.627 µM in experiment [8], 1.12 µM in experiment [9] and 1.37 µM in [10]. Moreover, the TGI in experiment [1] was more than 66.8 µM; in experiment [2], 25.8 µM; in experiment [3] it was more than 95.8 µM; in [4] it was 5.42 µM; in experiment [5], more than 100 µM; in [6] it was 20.7 µM. Further, the TGI in experiment [7] is 46.1 µM; in [8] it was 4.42 µM; in [9], more than 100 µM; in [10], more than 47.9 µM.
